Test results: publication PMC10160035, “Mechanism-based and computational modeling of hydrogen sulfide biogenesis inhibition: interfacial inhibition” (Scientific Reports, 2023)
Values belong to the molecule of their own block, whether it stands above or below them.

Columns and labels:
CSE = conditions: cited from earlier work
[1] = tested on: homogenated mouse aorta samples; set-up: method as in Brancaleone et al. (34); conditions: ref Brancaleone et al. (34), read-out: IC50 ex cellulo; cited from earlier work
[2] = biological target: T1, human CSE (cystathionine γ-lyase) (Homo sapiens, UniProt P32929)
T1 sequence (P32929 whole entry): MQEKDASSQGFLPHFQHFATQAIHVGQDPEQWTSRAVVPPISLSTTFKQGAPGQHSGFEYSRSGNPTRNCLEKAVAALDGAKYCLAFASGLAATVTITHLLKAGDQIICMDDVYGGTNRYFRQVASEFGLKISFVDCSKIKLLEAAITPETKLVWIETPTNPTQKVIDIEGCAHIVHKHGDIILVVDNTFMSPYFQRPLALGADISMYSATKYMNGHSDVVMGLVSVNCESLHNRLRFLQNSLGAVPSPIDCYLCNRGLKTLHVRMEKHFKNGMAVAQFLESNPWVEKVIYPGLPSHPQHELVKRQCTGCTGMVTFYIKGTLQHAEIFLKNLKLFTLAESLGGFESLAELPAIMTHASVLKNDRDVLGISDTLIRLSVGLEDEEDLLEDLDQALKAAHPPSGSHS

[3] = biological target: T1, human CSE (cystathionine γ-lyase); experiment: lead acetate assay of H2S production from cysteine; format: biochemical; set-up: 6xHis (TEV-cleavable) (N, cleaved yes); made in house; host or cells: E. coli One Shot BL-21 Star (DE3)
Description: Production of H2S from cysteine by CSE was measured spectrophotometrically by the lead acetate assay as previously described. […] Then, the formation of lead sulfide resulting from the reactivity of H2S with lead acetate was continuously monitored at 390 nm. The half inhibitory concentration (IC50) value was obtained by plotting the relative activity of CSE (A, in per cent) as a function of the concentration of D-pen and by fitting the data with Eq. (4), where ∆A is the maximal effect of D-pen on the activity of CSE and n is the Hillslope that characterizes the slope of the curve at its midpoint.4 A=ΔA/1+[D-Pen]/IC50^n
Next, 40 μg of CSE was added to the assay mixture to initiate the reaction, which was followed at 390 nm. The molar extinction coefficient for lead sulfide previously determined was then used to obtain vH2S[24]. The CSE-D-penicillamine dissociation constants for competitive and uncompetitive inhibition were calculated by plotting vH2S as a function of cysteine concentration and using Eq. (5).5 vH2S=Vmax×[Cys]/KM×1+[D-Pen]/Kic+[Cys]×1+[D-Pen]/Kiu

[4] = tested on: recombinant CSE (GST-CSE); conditions: 1 mM Cys, methylene blue assay, 10 min pre-incubation with CSE; read-out: IC50 towards H2S production; cited from earlier work
[5] = biological target: T1, human CSE (cystathionine γ-lyase); experiment: biochemical
[6] = biological target: T2, recombinant human CSE (cystathionine γ-lyase), tag-less (Homo sapiens, UniProt P32929); experiment: D-penicillamine binding followed by PLP fluorescence quenching; conditions: PLP fluorescence at 495 nm, 100 mM HEPES pH 7.4, 20 °C, n = 3 ± SD; read-out: Kd (dissociation constant between tag-less CSE and D-pen)
T2 construct: 6xHis (TEV-cleavable) (N, cleaved yes); made in house; host or cells: E. coli One Shot BL-21 Star (DE3)
T2 sequence (P32929 whole entry): as above
Description: The addition of D-pen induced a quenching of fluorescence. […] The black line represents the fit to the experimental data with a four-parameter logistic equation to obtain the dissociation binding constant of D-pen for CSE.
Fluorescence emission spectra were recorded 5 min after D-pen addition.

[7] = biological target: the molecule itself; experiment: SEC; HiLoad 16/600 Superdex 200, 0.5 mL/min, 100 mM HEPES pH 7.4, 150 mM NaCl; oligomeric state from the estimated apparent molecular mass

Molecule: N[C@@H](CSCCCC(=O)O)C(=O)O [S-3-carboxypropyl-L-cysteine]
inhibitory mode towards CSE (CSE): suicide inhibitors

Molecule: C#CCC(N)C(=O)O (stereo not shown) [propargylglycine]
inhibitory mode towards CSE (CSE): suicide inhibitors

Molecule: NCCO/C=C/[C@H](N)C(=O)O [aminoethoxyvinyglycine]
inhibitory mode towards CSE (CSE): slow and tight binding inhibitor

Molecule: N[C@H](C(=O)O)C(F)(F)F [trifluoroalanine]
inhibitory mode towards CSE (CSE): suicide inhibitors

Molecule: O=C(O)C1=CC(=C(c2ccc(O)c(C(=O)O)c2)c2ccc(O)c(C(=O)O)c2)C=CC1=O [aurintricarboxylic acid]
inhibitory mode towards CSE (CSE): competitive cofactor

Molecule: C#CCNC(=O)[C@@H]1CSC(=O)N1 [(R)-2-oxo-N-(prop-2-yn-1-yl)thiazolidine-4-carboxamide]
inhibitory mode towards CSE (CSE): substrate inhibitors

Kiu (uncompetitive inhibition), α,γ-elimination of cystathionine ([2]; 0.1–3 mM cystathionine, 100 mM HEPES pH 7.4, 37 °C): 8.55 ± 0.89 mM
mode of inhibition of cystathionine cleavage ([2]; Lineweaver–Burk analysis): mixed inhibition mechanism
IC50 ([3]; 1 mM Cys, 200 mM HEPES pH 7.4, 37 °C, no pre-incubation with enzyme, read-out: IC50 towards H2S production): 2040 ± 130 µM
Kiu (dissociation constant for uncompetitive inhibition), H2S biogenesis from Cys ([3]; 1–10 mM cysteine, 100 mM HEPES pH 7.4, 37 °C): 8.60 ± 1.22 mM
Ki ([3]; 1–10 mM cysteine, 100 mM HEPES pH 7.4, 37 °C, read-out: Kic (dissociation constant for competitive inhibition), H2S biogenesis from Cys): 1820 ± 350 µM
mode of inhibition of H2S biogenesis ([3]; Lineweaver–Burk analysis, varying Cys): mixed inhibition mechanism
effect of pre-incubation time on inhibition potency ([3]; inhibition followed as a function of pre-incubating time): not a slow-binding inhibitor
Ki [5]: 2540 ± 650 µM
Kd [6]: 15000 ± 4600 µM
Molecule: CC(C)(S)[C@@H](N)C(=O)O [D-pen, D-penicillamine]
IC50 [1]: 44 µM
IC50 [4]: 270 µM

B1: human recombinant cystathionine γ-lyase with N-terminal 6xHis-tag (enzyme)
chain: MQEKDASSQGFLPHFQHFATQAIHVGQDPEQWTSRAVVPPISLSTTFKQGAPGQHSGFEYSRSGNPTRNCLEKAVAALDGAKYCLAFASGLAATVTITHLLKAGDQIICMDDVYGGTNRYFRQVASEFGLKISFVDCSKIKLLEAAITPETKLVWIETPTNPTQKVIDIEGCAHIVHKHGDIILVVDNTFMSPYFQRPLALGADISMYSATKYMNGHSDVVMGLVSVNCESLHNRLRFLQNSLGAVPSPIDCYLCNRGLKTLHVRMEKHFKNGMAVAQFLESNPWVEKVIYPGLPSHPQHELVKRQCTGCTGMVTFYIKGTLQHAEIFLKNLKLFTLAESLGGFESLAELPAIMTHASVLKNDRDVLGISDTLIRLSVGLEDEEDLLEDLDQALKAAHPPSG
modifications: pyridoxal 5'-phosphate as internal aldimine with Lys212
notes: cystathionine γ-lyase (CSE), human; also called CSE; hCSE; source: E. coli One Shot BL-21 Star (DE3), purified (His-Trap HP, HiLoad 16/600 Superdex 200); not shown: His6, N-terminal, kept
stoichiometry N [7]: 4

B2: tag-less human recombinant cystathionine γ-lyase (enzyme)
chain: B1 chain
modifications: pyridoxal 5'-phosphate as internal aldimine with Lys212
notes: cystathionine γ-lyase (CSE), human; tag removed with TEV protease; also called tag-less CSE; CSE; not shown: His6, N-terminal, cleaved
stoichiometry N [7]: 4
